Data reported in patent US20250152585A1, “PHARMACEUTICAL COMPOUND” (Duke Street Bio Limited, priority 2022, published 2025).
pIC50, pKd: −log10 of the molar value. Read-outs that look alike come from different tables or passages of the source.

What was measured:
[1] = target: T1, N-terminally FLAG-tagged PARP2 (amino acids 1-583) (Homo sapiens, UniProt Q9UGN5); assay: PARP2 probe displacement HTRF assay; assay type: binding; conditions: binned Kd
T1 construct: N-terminally FLAG-tagged PARP2 (amino acids 1-583)
Description: Data analysis was performed identical as for PARP1.

[2] = target: T2, full length N-terminally FLAG-tagged PARP1 (Homo sapiens, UniProt P09874); assay: PARP1 probe displacement HTRF assay; conditions: for pKd: binned Kd; for Selectivity: PARP1 over PARP2, ratio Kd (PARP2)/Kd (PARP1)
[3] = target: T2, full length N-terminally FLAG-tagged PARP1; assay: PARP1 biochemical DELFIA assay (auto-PARylation); parameters: recombinant full length human N-terminally FLAG-tagged PARP1
[4] = PARP1 HTRF, PARP1 probe displacement HTRF
[5] = binned IC50, PARP1 biochemical DELFIA assay
[6] = read-out: PARP1 HTRF, probe displacement HTRF
[7] = binned IC50, biochemical auto-PARylation assay
[8] = read-out: PARP1 HTRF, PARP1 probe displacement HTRF

T1 sequence (Q9UGN5 whole entry, the tested form may be a part): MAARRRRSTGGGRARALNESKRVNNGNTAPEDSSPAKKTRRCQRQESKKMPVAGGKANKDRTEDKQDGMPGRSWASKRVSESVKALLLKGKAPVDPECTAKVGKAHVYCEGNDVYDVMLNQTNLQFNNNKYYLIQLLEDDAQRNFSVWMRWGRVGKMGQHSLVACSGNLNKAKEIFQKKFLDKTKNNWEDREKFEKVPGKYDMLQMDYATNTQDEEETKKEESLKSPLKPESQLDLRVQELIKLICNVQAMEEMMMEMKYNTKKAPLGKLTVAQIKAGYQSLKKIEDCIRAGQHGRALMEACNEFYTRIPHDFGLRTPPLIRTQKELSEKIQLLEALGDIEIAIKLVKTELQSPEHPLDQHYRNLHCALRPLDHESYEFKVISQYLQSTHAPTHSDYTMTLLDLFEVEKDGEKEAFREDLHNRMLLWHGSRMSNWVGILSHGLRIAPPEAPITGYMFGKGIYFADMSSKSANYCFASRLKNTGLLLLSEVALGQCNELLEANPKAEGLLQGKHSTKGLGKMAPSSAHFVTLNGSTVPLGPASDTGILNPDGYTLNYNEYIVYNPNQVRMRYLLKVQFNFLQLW
T2 sequence (P09874 whole entry): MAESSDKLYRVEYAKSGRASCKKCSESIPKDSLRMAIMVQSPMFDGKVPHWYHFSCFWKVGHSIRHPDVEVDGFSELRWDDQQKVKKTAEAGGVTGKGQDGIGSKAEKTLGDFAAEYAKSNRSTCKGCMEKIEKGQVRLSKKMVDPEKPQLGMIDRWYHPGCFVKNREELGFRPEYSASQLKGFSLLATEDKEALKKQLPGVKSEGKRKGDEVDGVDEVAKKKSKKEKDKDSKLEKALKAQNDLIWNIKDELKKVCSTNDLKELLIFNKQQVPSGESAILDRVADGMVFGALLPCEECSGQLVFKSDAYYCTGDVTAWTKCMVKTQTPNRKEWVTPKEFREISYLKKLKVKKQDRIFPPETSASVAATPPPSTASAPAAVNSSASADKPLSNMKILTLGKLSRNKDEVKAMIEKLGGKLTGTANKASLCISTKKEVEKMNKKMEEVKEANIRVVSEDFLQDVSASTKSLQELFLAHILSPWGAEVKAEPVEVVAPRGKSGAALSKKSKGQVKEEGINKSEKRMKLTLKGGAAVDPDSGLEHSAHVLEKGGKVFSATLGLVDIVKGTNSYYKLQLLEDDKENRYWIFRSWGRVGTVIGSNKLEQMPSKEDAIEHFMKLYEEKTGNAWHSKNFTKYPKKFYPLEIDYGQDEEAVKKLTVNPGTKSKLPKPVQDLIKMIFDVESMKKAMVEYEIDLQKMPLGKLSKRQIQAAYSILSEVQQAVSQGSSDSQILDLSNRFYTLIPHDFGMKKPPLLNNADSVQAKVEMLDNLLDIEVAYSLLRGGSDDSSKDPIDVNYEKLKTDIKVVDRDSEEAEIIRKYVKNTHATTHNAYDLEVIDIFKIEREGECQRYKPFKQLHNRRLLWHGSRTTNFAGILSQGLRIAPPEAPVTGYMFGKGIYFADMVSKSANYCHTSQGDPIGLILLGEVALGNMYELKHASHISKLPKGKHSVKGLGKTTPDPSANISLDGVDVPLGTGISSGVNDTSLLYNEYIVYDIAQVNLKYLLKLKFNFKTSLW

| Compound | pKd ([1]; PARP2 probe displacement HTRF) | pKd [2, 4] | pIC50 [3, 5] | pKd ([1]; probe displacement HTRF) | pKd [2, 6] | pIC50 [3, 7] | pKd [2, 8] | pKd ([2]; PARP1 HTRF, probe displacement HTRF) | Selectivity ([2]; probe displacement HTRF) |
| --- | --- | --- | --- | --- | --- | --- | --- | --- | --- |
| CCc1ccc(C2CCN(C3CCN(c4ccc(C#N)cc4Cl)CC3)C2)[nH]c1=O (single isomer, unassigned) [Compound 377a] | – | – | – | < 5.00 | 7.00 to 8.00 | 7.00 to 8.00 | – | – | +++ (+++ indicate a value of at least 100) |
| CNC(=O)c1ccc(N2CC(N3CCCC(c4nc5ccccc5c(=O)[nH]4)CC3)C2)cn1 (single isomer, unassigned) [Compound 145a] | 5.00 to 6.00 | – | > 8.00 | – | – | – | > 8.00 | – | +++ (+++ indicate a value of at least 100) |
| CNC(=O)c1ccc(N2CCC(CN3CCC(c4nc5ccccc5c(=O)[nH]4)CC3)C2)cn1 (single isomer, unassigned) [Compound 50b] | < 5.00 | – | 7.00 to 8.00 | – | – | – | 7.00 to 8.00 | – | +++ (+++ indicate a value of at least 100) |
| CNC(=O)c1ccc(N2CCC(N3CCC(F)(c4nc5ccccc5c(=O)[nH]4)C3)CC2)cn1 (single isomer, unassigned) [Compound 328b] | – | – | – | < 5.00 | 7.00 to 8.00 | 7.00 to 8.00 | – | – | +++ (+++ indicate a value of at least 100) |
| CC(=O)Nc1ccc(N2CCC(N3CCC(c4nc5ccccc5c(=O)[nH]4)C3)CC2)cn1 (single isomer, unassigned) [Compound 220b] | – | – | – | 5.00 to 6.00 | 7.00 to 8.00 | 7.00 to 8.00 | – | – | + (+ indicates a value of 10 to less than 50) |
| CNC(=O)c1ccc(N2CCC(N3CCC(c4nc5c(c(=O)[nH]4)CCCN5C)C3)CC2)cn1 (single isomer, unassigned) [Compound 208a, N-methyl-5-(4-(3-(8-methyl-4-oxo-3,4,5,6,7,8-hexahydropyrido[2,3-d]pyrimidin-2-yl)pyrrolidin-1-yl)piperidin-1-yl)picolinamide] | 6.00 to 7.00 | 7.00 to 8.00 | > 8.00 | – | – | – | – | – | + (+ indicates a value of 10 to less than 50) |
| CNC(=O)c1ccc(N2CCC(N3CCC(c4nc5c(c(C(F)(F)F)nn5C)c(=O)[nH]4)C3)CC2)cn1 (single isomer, unassigned) [Compound 187a] | 6.00 to 7.00 | – | 7.00 to 8.00 | – | – | – | 7.00 to 8.00 | – | − (− indicates a value of less than 10) |
| CS(=O)(=O)Nc1ccc(N2CCC(N3CCC(c4nc5ccccc5c(=O)[nH]4)C3)CC2)cc1 (single isomer, unassigned) [Compound 250a] | – | – | – | 5.00 to 6.00 | 6.00 to 7.00 | 6.00 to 7.00 | – | – | − (− indicates a value of less than 10) |
| CNC(=O)c1ccc(N2CCC(N3CCC(c4nc5ccccc5c(=O)[nH]4)C3)CC2)c(Cl)n1 (racemic) [Compound 104rac] | 5.00 to 6.00 | – | > 8.00 | – | – | – | > 8.00 | – | +++ (+++ indicate a value of at least 100) |
| CCc1ccc(C2CCN(C3CCN(c4ccc(C(=O)NCC(F)(F)F)nc4)CC3)C2)[nH]c1=O (racemic) [Compound 153rac] | 6.00 to 7.00 | – | > 8.00 | – | – | – | > 8.00 | – | ++ (++ indicates a value of 50 to less than 100) |
| O=c1[nH]c(C2CCN(C3CCN(c4ccccc4)CC3)C2)nc2ccccc12 (single isomer, unassigned) [Compound 32a] | 5.00 to 6.00 | – | 7.00 to 8.00 | – | – | – | 7.00 to 8.00 | – | + (+ indicates a value of 10 to less than 50) |
| CNC(=O)c1ccc(N2CCC(N3CCC(c4nc5c(C(F)(F)F)c[nH]c5c(=O)[nH]4)C3)CC2)cn1 (single isomer, unassigned) [Compound 293a] | – | – | – | < 5.00 | < 5.00 | < 5.00 | – | – | − (− indicates a value of less than 10) |
| CCc1ccc(C2CCN(C3CCN(c4ccc(C#N)nc4)CC3)C2)[nH]c1=O (single isomer, unassigned) [Compound 326a] | – | – | – | 5.00 to 6.00 | 6.00 to 7.00 | 6.00 to 7.00 | – | – | + (+ indicates a value of 10 to less than 50) |
| CNC(=O)c1ccc(N2CCC(N3CCCC(c4nc5cnccc5c(=O)[nH]4)C3)CC2)cn1 (single isomer, unassigned) [Compound 106b] | < 5.00 | – | 5.00 to 6.00 | – | – | – | < 5.00 | – | − (− indicates a value of less than 10) |
| CNC(=O)c1ccc(N2CCC(N3CCCC(c4nc5cnccc5c(=O)[nH]4)C3)CC2)cn1 (single isomer, unassigned) [Compound 106a] | < 5.00 | – | 6.00 to 7.00 | – | – | – | 6.00 to 7.00 | – | + (+ indicates a value of 10 to less than 50) |
| CNC(=O)c1ccc(N2CC(CN3CCC(c4nc5ccccc5c(=O)[nH]4)CC3)C2)cn1 [Compound 45] | 6.00 to 7.00 | > 8.00 | > 8.00 | – | – | – | – | – | +++ (+++ indicate a value of at least 100) |

Now from value to compound, other results behind:

| pKd ([1]; PARP2 probe displacement HTRF) | pKd [2, 4] | pIC50 [3, 5] | pKd ([1]; probe displacement HTRF) | pKd [2, 6] | pIC50 [3, 7] | pKd [2, 8] | pKd ([2]; PARP1 HTRF, probe displacement HTRF) | Compound | Selectivity ([2]; probe displacement HTRF) |
| --- | --- | --- | --- | --- | --- | --- | --- | --- | --- |
| 6.00 to 7.00 | > 8.00 | > 8.00 | – | – | – | – | – | CNC(=O)c1ccc(N2CCC(N3CCC(c4nc5c(Cl)cccc5c(=O)[nH]4)C3)CC2)cn1 (single isomer, unassigned) [Compound 52b, 5-(4-(3-(8-chloro-4-oxo-3,4-dihydroquinazolin-2-yl)pyrrolidin-1-yl)piperidin-1-yl)-N-methylpicolinamide] | +++ (+++ indicate a value of at least 100) |
| – | – | – | 6.00 to 7.00 | > 8.00 | > 8.00 | – | – | N#Cc1ccc(N2CCC(N3CCC(c4cc5cccc(F)c5c(=O)[nH]4)C3)CC2)cc1 (single isomer, unassigned) [Compound 314a] | + (+ indicates a value of 10 to less than 50) |
| – | – | – | < 5.00 | – | > 8.00 | – | > 8.00 | CNC(=O)c1ccc(N2CCC(N3CCC(c4cc5c(c(=O)[nH]4)CCC(=O)N5)C3)CC2)cn1 (single isomer, unassigned) [Compound 309a, 5-(4-(3-(2,5-dioxo-1,2,3,4,5,6-hexahydro-1,6-naphthyridin-7-yl)pyrrolidin-1-yl)piperidin-1-yl)-N-methylpicolinamide] | +++ (+++ indicate a value of at least 100) |
| – | – | – | 6.00 to 7.00 | > 8.00 | > 8.00 | – | – | CNC(=O)c1ncc(N2CCC(N3CCC(c4cc5ccc(F)cc5c(=O)[nH]4)C3)CC2)c(C)n1 (single isomer, unassigned) [Compound 265b] | +++ (+++ indicate a value of at least 100) |
| – | – | – | < 5.00 | 5.00 to 6.00 | 6.00 to 7.00 | – | – | CCCc1ccc(C2CCN(C3CCN(c4ccc(C(=O)NC)nc4)CC3)C2)[nH]c1=O (single isomer, unassigned) [Compound 261a] | − (− indicates a value of less than 10) |
| < 5.00 | – | 7.00 to 8.00 | – | – | – | 7.00 to 8.00 | – | CNC(=O)c1ccc(N2CCC(N3CCC(c4ccc(CC5CC5)c(=O)[nH]4)C3)CC2)cn1 (single isomer, unassigned) [Compound 213a] | +++ (+++ indicate a value of at least 100) |
| – | – | – | 7.00 to 8.00 | > 8.00 | > 8.00 | – | – | CNC(=O)c1ccc(N2CCC(N3CCC(c4cc5cccc(F)c5c(=O)[nH]4)C3)CC2)cc1F (single isomer, unassigned) [Compound 281a] | + (+ indicates a value of 10 to less than 50) |
| – | – | – | 5.00 to 6.00 | 6.00 to 7.00 | 6.00 to 7.00 | – | – | CC(=O)Nc1ccc(N2CCC(N3CCC(c4cc5ccccc5c(=O)[nH]4)C3)CC2)c(Cl)c1 (single isomer, unassigned) [Compound 273a] | − (− indicates a value of less than 10) |
| – | – | – | 6.00 to 7.00 | > 8.00 | > 8.00 | – | – | CNC(=O)c1ccc(N2CCC(N3CCC(c4cc5ncc(F)cc5c(=O)[nH]4)C3)CC2)c(F)n1 (single isomer, unassigned) [Compound 324b] | +++ (+++ indicate a value of at least 100) |
| – | – | – | 6.00 to 7.00 | > 8.00 | > 8.00 | – | – | CC(=O)NC(=O)c1ccc(N2CCC(N3CCC(c4cc5ccccc5c(=O)[nH]4)C3)CC2)cn1 (single isomer, unassigned) [Compound 333a] | +++ (+++ indicate a value of at least 100) |
| – | – | – | 7.00 to 8.00 | > 8.00 | > 8.00 | – | – | CNC(=O)c1ccc(N2CCC(N3CCC(c4nc5ccc(F)c(F)c5c(=O)[nH]4)C3)CC2)cn1 (single isomer, unassigned) [Compound 222b] | +++ (+++ indicate a value of at least 100) |
| < 5.00 | – | > 8.00 | – | – | – | > 8.00 | – | CNC(=O)c1ccc(N2CCC(N3CCCC(c4nc5c(Cl)cccc5c(=O)[nH]4)C3)CC2)cn1 (single isomer, unassigned) [Compound 44a] | +++ (+++ indicate a value of at least 100) |
| – | – | – | 7.00 to 8.00 | > 8.00 | > 8.00 | – | – | CNC(=O)c1ccc(N2CCC(N3CCC(c4cc5[nH]nc(C(F)(F)F)c5c(=O)[nH]4)C3)CC2)c(F)n1 (single isomer, unassigned) [Compound 280b] | ++ (++ indicates a value of 50 to less than 100) |
| – | – | – | 6.00 to 7.00 | > 8.00 | > 8.00 | – | – | CNC(=O)c1ccc(N2CCC(N3CCC(c4cc5c(c(=O)[nH]4)COCC5)C3)CC2)cn1 (racemic) [Compound 405rac] | +++ (+++ indicate a value of at least 100) |
| < 5.00 | – | 7.00 to 8.00 | – | – | – | 7.00 to 8.00 | – | CCc1ccc(C2CCN(C3CCN(c4ccc(C(=O)NC)nc4C)CC3)C2)[nH]c1=O (single isomer, unassigned) [Compound 133b] | +++ (+++ indicate a value of at least 100) |
